We go through two compounds from patent publication US6645972B2, “Methods of treating leukemia” (Shire BioChem Inc., priority 2001, dated 2003).

pIC50: −log10 of the molar value. Structures can show the parent of a compound that is named as a salt.

One test has as its system KBM5 cells. The test is described as follows: response of KBM5 cells to STI-571 exposure. It counts as cell-based, human. Here is the method: (§1) The cells were cultured in Iscove's modified Dulbecco's medium supplemented with 10% fetal calf serum (Invitrogen Corp., Carlsbad, Calif.) at 37° C. in atmosphere of 5% CO2 in air.
A further test relates to KBM7 cells. The test is described as follows: response of KBM7 cells to STI-571 exposure. It counts as cell-based, human. On the procedure:
as §1

The test system of the next test is KBM-7 cells. As to the kind of experiment: in vitro growth inhibition (MTS) assay, KBM-7. It counts as cell-based, human. To be noted: 3 day MTS assay, 72 h exposure, read-out: IC50 (drug concentration which causes 50% growth inhibition). Here is the method:
(§2) β-L Oddc was evaluated using an in vitro growth inhibition (MTS) assay. The description of the cell lines used and the details of the MTS assay are described below.
(§3) Cell lines: Two human CML, Ph+, p210 Bcr-Abl expressing cell lines were used, namely, KBM-5 and KBM-7. KBM-5 was derived from a patient in the blastic phase of CML and was evaluated to be absent of normal c-ABL. KBM-7 was identified previously to be a human near-haploid cell line. These two cell lines were further described in the references below, now incorporated by reference:
as §1
(§4) Growth inhibition (MTS) assay: The in vitro growth inhibition effect of β-L Oddc on leukemic cells was determined by measuring MTS (CellTiter 96®Aqueous One Solution Reagent, Promega Corporation, WI) dye absorbance by living cells. Briefly, cells were seeded in triplicate in 96-well microtiter plates (Falcon, USA) at a concentration of 4×10^5 cells /ml. After exposure to the β-L Oddc for 72 h, 20 μl of MTS solution were added to each well, the plates were incubated for additional 4 h at 37° C., and absorbance at 490 nm was measured.
In general terms: Tetrazolium dyes change colour on reduction, which living cells bring about.

The subject of a further test is KBM-5 cells. As to the kind of experiment: in vitro growth inhibition (MTS) assay, KBM-5. The format is cell-based, human. To be noted: 3 day MTS assay, 72 h exposure, read-out: IC50 (drug concentration which causes 50% growth inhibition). Here is the method:
as §2, §3, §1, §4

Test [1] relates to KBM7-STI^R cells (STI-571-resistant KBM7). As to the kind of experiment: in vitro growth inhibition (MTS) assay, KBM7-STI^R. It counts as cell-based, human. To be noted: 3 day MTS assay, 72 h exposure, read-out: IC50 (drug concentration which causes 50% growth inhibition). On the procedure: as §2, §3, §4
Test [2] has as its system chronic myeloid leukemia in blastic phase (CML-BP). As to the kind of experiment: preliminary multicenter study in patients with CML-BP. The format is in vivo, human. To be noted: 8mg/m^2/day daily for 5 days, twenty one patients evaluable, 40 cycles, data not verified. Here is the method: A preliminary study was conducted to investigate the activity of β-L Oddc in patients with chronic myeloid leukemia in blastic phase (CML-BP). The multicenter study was conducted using β-L Oddc 8mg/m^2/day daily for 5 days for patients with CML-BP who had received no prior chemotherapy for CML-BP. Patients who had received Gleevec therapy as sole prior therapy for CML-BP were also eligible. Twenty-six patients, 17 male, 26 performance score less than or equal to 2, median age 54 years (range 31-84) had been entered in the study to date. 13 (50%) patients received β-L Oddc as first therapy for CML-BP, 13 (50%) had failed prior Gleevec therapy for CML-BP. Response definitions are as follows: Complete hematologic response (CHR) requires normalization of peripheral counts and differentials with less than or equal to 5% marrow blasts for at least 4 weeks. Hematologic improvement (HI) is as with CHR but with persistence of thrombocytopenia less than 100×10^9/L and few immature peripheral cells. A partial hematologic response (PHR) is as per CHR, but allows persistence of, though less than or equal to 50% reduction of, palpable splenomegaly and thrombocytosis (platelets>450×10^9/L) or the presence of few immature peripheral cells. […]

Test [3] has as its system KBM5-STI^R cells (STI-571-resistant KBM5). As to the kind of experiment: in vitro growth inhibition (MTS) assay, KBM5-STI^R. The format is cell-based, human. To be noted: 3 day MTS assay, 72 h exposure, read-out: IC50 (drug concentration which causes 50% growth inhibition).

Take `Cc1ccc(NC(=O)c2ccc(CN3CCN(C)CC3)cc2)cc1Nc1nccc(-c2cccnc2)n1` [STI-571, imatinib mesylate]: the “response to STI-571 exposure” value with KBM5 cells was “G0/G1 cell cycle arrest”; in the test on KBM7 cells, “apoptosis”.
Regarding `Nc1ccn([C@@H]2CO[C@H](CO)O2)c(=O)n1` [β-L Oddc, (−)-β-L-Dioxolane-Cytidine], the pIC50 (in the test on KBM-7 cells; in the test with KBM-5 cells; in test [1]; in test [3]) was 6.00 to 6.30 in each case. In addition, in test [2], the “patients in whom some responses were observed” value worked out at 4 patients.
